From the NIST ThermoML archive (doi:10.1016/j.jct.2006.05.006)

Key:
[1] = xn = mol fraction of the nth substance listed; settings: 101 kPa, Liquid
[2] = 101 kPa, Liquid
[3] = refractive index (Na D-line) (dimensionless); settings: 293.1 K; 101.33 kPa; Liquid; Standard Abbe refractometry

CN1CCCC1=O [N-methylpyrrolidone] + CCc1ccccc1
[1], x2 = 0
Settings | mass density [kg/m3]
293.15 K | 1032.66
303.15 K | 1023.42
313.15 K | 1014.27
323.15 K | 1005.62
333.15 K | 996.28
343.15 K | 987.39
353.15 K | 978.62

Cc1ccccc1 [toluene] + CN1CCCC1=O
[1], x1 = 1
Settings | mass density [kg/m3]
293.15 K | 866.8
303.15 K | 857.53
313.15 K | 848.23
323.15 K | 838.91
333.15 K | 829.55
343.15 K | 820.17
353.15 K | 810.77

CCc1ccccc1 [ethylbenzene]
[2]
Settings | mass density [kg/m3]
293.15 K | 867.28
303.15 K | 858.36
313.15 K | 849.38
323.15 K | 840.35
333.15 K | 831.25
343.15 K | 822.11
353.15 K | 812.9

Settings | refractive index
[3] | 1.4962

Cc1ccccc1 [toluene]
[2]
Settings | mass density [kg/m3]
293.15 K | 866.8
303.15 K | 857.53
313.15 K | 848.23
323.15 K | 838.91
333.15 K | 829.55
343.15 K | 820.17
353.15 K | 810.77

Settings | refractive index
[3] | 1.4965

CN1CCCC1=O [N-methylpyrrolidone]
[2]
Settings | mass density [kg/m3]
293.15 K | 1032.66
303.15 K | 1023.42
313.15 K | 1014.27
323.15 K | 1005.62
333.15 K | 996.28
343.15 K | 987.39
353.15 K | 978.62

Settings | refractive index
[3] | 1.4677

c1ccccc1 [benzene]
[2]
Settings | mass density [kg/m3]
293.15 K | 878.96
303.15 K | 868.21
313.15 K | 857.4
323.15 K | 846.55
333.15 K | 835.66
343.15 K | 824.71

Settings | refractive index
[3] | 1.5009

c1ccccc1 [benzene] + CN1CCCC1=O
[1], x1 = 1
Settings | mass density [kg/m3]
293.15 K | 878.96
303.15 K | 868.21
313.15 K | 857.4
323.15 K | 846.55
333.15 K | 835.66
343.15 K | 824.71
